According to ChEMBL document CHEMBL2057131, “Novel steroid inhibitors of glucose 6-phosphate dehydrogenase” (J Med Chem, 2012):
Converted amounts (≈) assume the structure as drawn.

Experiments:
[1] = Efflux ratio of permeability of the compound from basolateral to apical side over apical to basolateral side of human Caco2 cells; format: ADME, cell-based; settings: Caco-2
[2] = biological target: T1, Glucose-6-phosphate 1-dehydrogenase (Homo sapiens, UniProt P11413); assay: Ratio of IC50 for G6PD in HEK293T cells to IC50 for human recombinant G6PD expressed in Escherichia coli JM109 (DE3) cells; settings: HEK-293T
T1 sequence (P11413 whole entry): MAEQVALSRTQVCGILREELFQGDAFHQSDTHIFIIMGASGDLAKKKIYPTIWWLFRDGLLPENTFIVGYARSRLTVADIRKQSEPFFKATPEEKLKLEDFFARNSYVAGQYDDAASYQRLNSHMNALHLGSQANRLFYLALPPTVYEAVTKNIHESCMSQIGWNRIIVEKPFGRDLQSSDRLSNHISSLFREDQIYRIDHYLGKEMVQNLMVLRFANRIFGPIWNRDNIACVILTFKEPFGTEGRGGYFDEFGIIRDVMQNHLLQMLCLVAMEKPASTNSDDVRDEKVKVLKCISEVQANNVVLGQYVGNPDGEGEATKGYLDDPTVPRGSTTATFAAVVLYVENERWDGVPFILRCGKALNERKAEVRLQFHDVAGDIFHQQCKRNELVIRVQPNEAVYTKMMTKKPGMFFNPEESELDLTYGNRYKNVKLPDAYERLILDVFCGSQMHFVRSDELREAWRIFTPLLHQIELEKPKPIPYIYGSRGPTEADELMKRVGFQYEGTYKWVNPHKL

[3] = biological target: T1, Glucose-6-phosphate 1-dehydrogenase; assay: Inhibition of human recombinant N-terminal His tagged G6PD expressed in Escherichia coli JM109 (DE3) cells assessed as production of NADPH after 30 mins by Amplite fluorimetric assay
[4] = Permeability of the compound from apical to basolateral side of human Caco2 cells; format: ADME, cell-based; settings: Caco-2, read-out: permeability
[5] = Aqueous solubility of the compound in phosphate buffer by turbidimetric method; format: physicochemical
[6] = biological target: T1, Glucose-6-phosphate 1-dehydrogenase; assay: Inhibition of G6PD in HEK293T cells assessed as accumulation of 6-phosphogluconate after 5 hrs by LC-MS/MS analysis using 6-aminonicotinamide; format: cell-based, HEK-293T
[7] = Half life in human liver microsomes; format: ADME, Microsome
in vitro = settings: human, liver microsomes

SMILES	IC50 [3] [µM]	further results
CC(=O)[C@H]1CC[C@H]2[C@@H]3CC[C@H]4C[C@@H](NS(N)(=O)=O)CC[C@]4(C)[C@H]3CC[C@]12C	2	efflux ratio [1]: 0.53; Ratio IC50 [2]: 4.6; Papp A→B [4]: 21 nm/s; solubility kinetic [5]: 10 µM (≈ 3.97 µg/mL); IC50 [6]: 9.2 µM
CC(=O)C[C@H]1CC[C@H]2[C@@H]3CC[C@H]4C[C@@H](O)CC[C@]4(C)[C@H]3CC[C@]12C	> 200	
CC(=O)[C@H]1CC[C@H]2[C@@H]3CC[C@H]4C[C@@H](N)CC[C@]4(C)[C@H]3CC[C@]12C	> 200	
C[C@]12CC[C@H](NS(C)(=O)=O)C[C@@H]1CC[C@@H]1[C@@H]2CC[C@]2(C)[C@@H](C(=O)CO)CC[C@@H]12	3.8	efflux ratio [1]: 0.3; Ratio IC50 [2]: 9.2; Papp A→B [4]: 174 nm/s; solubility kinetic [5]: 10 µM (≈ 4.12 µg/mL); IC50 [6]: 35.2 µM
C/C(=N/O)[C@H]1CC[C@H]2[C@@H]3CC[C@H]4C[C@@H](O)CC[C@]4(C)[C@H]3CC[C@]12C	> 200	
COC(=O)N[C@H]1CC[C@@]2(C)[C@@H](CC[C@@H]3[C@@H]2CC[C@]2(C)[C@@H](C(C)=O)CC[C@@H]32)C1	> 200	
C[C@]12CC[C@H]3[C@@H](CC=C4C[C@@H](O)CC[C@@]43C)[C@@H]1CC[C@@H]2C(=O)CO	5.3	
C[C@]12CC[C@H](NS(=O)(=O)c3ccccc3)C[C@@H]1CC[C@@H]1[C@@H]2CC[C@]2(C)C(=O)CC[C@@H]12	9.9	
C[C@]12CC[C@H](NS(N)(=O)=O)C[C@@H]1CC[C@@H]1[C@@H]2CC[C@]2(C)[C@@H](C(=O)CO)CC[C@@H]12	1.2	efflux ratio [1]: 0.49; Ratio IC50 [2]: 11.8; half-life [7]: 48.9 min; Papp A→B [4]: 131 nm/s; solubility kinetic [5]: > 100 µM; IC50 [6]: 14.1 µM; microsomal CLint (in vitro): 28.3 µL/min/mg
C[C@]12CC[C@H](O)C[C@@H]1CC[C@@H]1[C@@H]2CC[C@]2(C)/C(=N/O)CC[C@@H]12	> 200	
CC(=O)OCC(=O)[C@H]1CC[C@H]2[C@@H]3CC[C@H]4C[C@@H](O)CC[C@]4(C)[C@H]3CC[C@]12C	> 200	
CNC(=O)N[C@H]1CC[C@@]2(C)[C@@H](CC[C@@H]3[C@@H]2CC[C@]2(C)C(=O)CC[C@@H]32)C1	12.2	
C[C@]12CC[C@H](O)CC1=CC[C@@H]1[C@@H]2CC[C@@]2(C)[C@H]1CC[C@@]21CCO1	> 200	
C[C@]12CC[C@@H](NS(C)(=O)=O)C[C@@H]1CC[C@@H]1[C@@H]2CC[C@]2(C)C(=O)CC[C@@H]12	> 200	
CC(=O)[C@@]12O[C@@H]1C[C@H]1[C@@H]3CC[C@H]4C[C@@H](O)CC[C@]4(C)[C@H]3CC[C@@]12C	> 200	
CC(=O)N[C@H]1CC[C@@]2(C)[C@@H](CC[C@@H]3[C@@H]2CC[C@]2(C)C(=O)CC[C@@H]32)C1	128	
C[C@]12CC[C@H](O)C[C@@H]1CC[C@@H]1[C@@H]2CC[C@]2(C)C(=O)[C@H](Br)C[C@@H]12 [16.ALPHA.-BROMOEPIANDROSTERONE]	20.8	
CC(=O)[C@H]1CC[C@H]2[C@@H]3CC=C4C[C@@H](O)CC[C@]4(C)[C@H]3CC[C@]12C [PREGNENOLONE]	81.4	
CCCCNC(=O)N[C@H]1CC[C@@]2(C)[C@@H](CC[C@@H]3[C@@H]2CC[C@]2(C)C(=O)CC[C@@H]32)C1	1.7	

SMILES	IC50 [3] [µM]	further results
C[C@]12CC[C@H](O)C[C@@H]1CC[C@H]1[C@@H]3CC[C@H](C(=O)CO)[C@@]3(C)CC(=O)[C@@H]12	6.3	
CCS(=O)(=O)N[C@H]1CC[C@@]2(C)[C@@H](CC[C@@H]3[C@@H]2CC[C@]2(C)C(=O)CC[C@@H]32)C1	70.5	
C[C@]12CC[C@H](O)C[C@@H]1CC[C@@H]1[C@@H]2CC[C@@]2(C)[C@H]1CC[C@@]21CO1	> 200	
COC(=O)N[C@H]1CC[C@@]2(C)[C@@H](CC[C@@H]3[C@@H]2CC[C@]2(C)[C@@H](C(=O)CO)CC[C@@H]32)C1	41.6	
C[C@]12CC[C@H](O)C[C@@H]1CC[C@@H]1[C@@H]2CC[C@]2(C)[C@@H](C(=O)CCl)CC[C@@H]12	9.3	
CC(=O)N[C@H]1CC[C@@]2(C)[C@@H](CC[C@@H]3[C@@H]2CC[C@]2(C)[C@@H](C(C)=O)CC[C@@H]32)C1	> 200	
C[C@]12CC[C@@H](O)C[C@@H]1CC[C@@H]1[C@@H]2CC[C@]2(C)[C@@H](C(=O)CO)CC[C@@H]12	31.6	
C[C@]12CC[C@H](NC(N)=O)C[C@@H]1CC[C@@H]1[C@@H]2CC[C@]2(C)C(=O)CC[C@@H]12	5	
C[C@]12CC[C@@H](O)C[C@@H]1CC[C@@H]1[C@@H]2CC[C@]2(C)C(=O)CC[C@@H]12 [ANDROSTERONE]	> 200	
C[C@]12CC[C@@H](NS(N)(=O)=O)C[C@@H]1CC[C@@H]1[C@@H]2CC[C@]2(C)C(=O)CC[C@@H]12	> 200	
CCNC(=O)N[C@@H]1CC[C@@]2(C)[C@@H](CC[C@@H]3[C@@H]2CC[C@]2(C)C(=O)CC[C@@H]32)C1	> 200	
C[C@]12CC[C@H](NS(C)(=O)=O)C[C@@H]1CC[C@@H]1[C@@H]2CC[C@]2(C)C(=O)CC[C@@H]12	6.6	
CC(=O)[C@H]1CC[C@H]2[C@@H]3CC[C@H]4C[C@@H](NC(N)=O)CC[C@]4(C)[C@H]3CC[C@]12C	> 100	
C[C@]12CC[C@@H](N)C[C@@H]1CC[C@@H]1[C@@H]2CC[C@]2(C)C(=O)CC[C@@H]12	> 200	
C[C@]12CC[C@H](N)C[C@@H]1CC[C@@H]1[C@@H]2CC[C@]2(C)C(=O)CC[C@@H]12	> 200	
C[C@]12CCCC[C@@H]1CC[C@@H]1[C@@H]2CC[C@]2(C)C(=O)CC[C@@H]12	> 200	
C[C@]12CC[C@H](O)CC1=CC[C@@H]1[C@@H]2CC[C@]2(C)C(=O)CC[C@@H]12 [PRASTERONE]	11.3	Ratio IC50 [2]: 2.2; solubility kinetic [5]: > 100 µM; IC50 [6]: 24.9 µM
C[C@]12CC[C@H](O)C[C@@H]1CC[C@@H]1[C@@H]2CC[C@]2(C)C(=O)CC[C@@H]12 [EPIANDROSTERONE]	9.4	
CO[C@]1(C(C)=O)CC[C@H]2[C@@H]3CC[C@H]4C[C@@H](O)CC[C@]4(C)[C@H]3CC[C@@]21C	> 200	

SMILES	IC50 [3] [µM]	further results
CCNC(=O)N[C@H]1CC[C@@]2(C)[C@@H](CC[C@@H]3[C@@H]2CC[C@]2(C)C(=O)CC[C@@H]32)C1	1	efflux ratio [1]: 0.54; Ratio IC50 [2]: 9.5; half-life [7]: 24.4 min; Papp A→B [4]: 316 nm/s; solubility kinetic [5]: 30 µM (≈ 10.8 µg/mL); IC50 [6]: 9.5 µM; microsomal CLint (in vitro): 56.8 µL/min/mg
CN(C)C(=O)N[C@H]1CC[C@@]2(C)[C@@H](CC[C@@H]3[C@@H]2CC[C@]2(C)C(=O)CC[C@@H]32)C1	> 200	
C[C@]12CC[C@H](NS(N)(=O)=O)C[C@@H]1CC[C@@H]1[C@@H]2CC[C@]2(C)C(=O)CC[C@@H]12	1.2	efflux ratio [1]: 0.66; Ratio IC50 [2]: 14.5; Papp A→B [4]: 318 nm/s; solubility kinetic [5]: 30 µM (≈ 11.1 µg/mL); IC50 [6]: 17.4 µM
COC(=O)N[C@H]1CC[C@@]2(C)[C@@H](CC[C@@H]3[C@@H]2CC[C@]2(C)C(=O)CC[C@@H]32)C1	1.5	Ratio IC50 [2]: 5.2; solubility kinetic [5]: > 100 µM; IC50 [6]: 7.8 µM
CC(=O)[C@H]1CC[C@H]2[C@@H]3CC[C@H]4C[C@H](O)CC[C@]4(C)[C@H]3CC[C@]12C [BREXANOLONE]	66	
C[C@]12CC[C@H](O)C[C@@H]1CC[C@@H]1[C@@H]2CC[C@@]2(C)[C@H]1CC[C@]2(O)C(=O)CO	5.2	
CCNC(=O)NC1CC[C@@]2(C)[C@@H](CC[C@@H]3[C@@H]2CC[C@]2(C)[C@@H](C(=O)CO)CC[C@@H]32)C1 (some centres not stated)	34.9	
CC(=O)[C@H]1CC[C@H]2[C@@H]3CC[C@H]4C[C@@H](O)CC[C@]4(C)[C@H]3C(=O)C[C@]12C	15.8	
C[C@]12CC[C@H](O)C[C@@H]1CC[C@@H]1[C@@H]2CC[C@]2(C)[C@@H](C(=O)CBr)CC[C@@H]12	2.5	
C[C@]12CC[C@H](O)CC1=CC[C@@H]1[C@@H]2CC[C@@]2(C)[C@H]1CC[C@@]21CO1	> 200	
CC(=O)[C@H]1CC[C@H]2[C@@H]3CC[C@H]4C[C@@H](NS(=O)(=O)c5ccccc5)CC[C@]4(C)[C@H]3CC[C@]12C	20.3	
CC(=O)[C@H]1CC[C@H]2[C@@H]3CC[C@H]4C[C@@H](NC(=O)N(C)C)CC[C@]4(C)[C@H]3CC[C@]12C	> 200	
CC(=O)[C@H]1CC[C@H]2[C@@H]3CC[C@H]4C[C@@H](O)CC[C@]4(C)[C@H]3CC[C@]12C [SEPRANOLONE]	4.3	
C[C@]12CC[C@H](O)C[C@@H]1CC[C@@H]1[C@@H]2CC[C@@]2(C)[C@H]1CC[C@@]21CCO1	> 200	
CC(=O)[C@@]1(O)CC[C@H]2[C@@H]3CC[C@H]4C[C@@H](O)CC[C@]4(C)[C@H]3C(=O)C[C@@]21C	47	
CC(=O)[C@H]1CC[C@H]2[C@@H]3CC[C@H]4C[C@@H](NS(C)(=O)=O)CC[C@]4(C)[C@H]3CC[C@]12C	3.4	Ratio IC50 [2]: 1.4; half-life [7]: 135 min; solubility kinetic [5]: 3 µM (≈ 1.19 µg/mL); IC50 [6]: 4.8 µM; microsomal CLint (in vitro): 10.3 µL/min/mg
CCS(=O)(=O)N[C@H]1CC[C@@]2(C)[C@@H](CC[C@@H]3[C@@H]2CC[C@]2(C)[C@@H](C(C)=O)CC[C@@H]32)C1	11	
C[C@]12CC[C@H](O)CC1=CC[C@@H]1[C@@H]2CC[C@]2(C)C(=O)[C@H](O)C[C@@H]12	15.8	
CC(=O)[C@H]1CC[C@H]2[C@@H]3CC[C@H]4C[C@@H](NS(=O)(=O)N(C)C)CC[C@]4(C)[C@H]3CC[C@]12C	37.8	
